Results published in patent publication US20260140098A1, “METHOD FOR TREATING PLASMA SAMPLE CONTAINING (7aS,2'S)-2-OXO-CLOPIDOGREL AND METHOD FOR DETERMINING THE SAME” (CHENGDU SHIBEIKANG BIOMEDICAL TECHNOLOGY CO., LTD., priority 2021, published 2026).

Assay: Stability of (7aS,2′S)-2-oxo-clopidogrel in plasma, screening of TCEP dosage (Example 4)
Assay type: in vitro ADME
Experimental: S2. Plasma sample pre-treatment: taking 100 μl of the plasma, adding 5 μl of an internal standard working solution and 300 μl of acetonitrile respectively; after vortex mixing, centrifuging at 2-8° C. and 10,000 r/min for 10 min, and collecting the supernatant for later use.
S3. LC-MS/MS analysis: injecting 10 μl of the supernatant prepared from step S2 for determination, where the liquid chromatography conditions are: • the chromatographic column is Kinetex® 1.7 μm C18 100 A 100×2.1 mm; the column temperature is 40° C.; the mobile phase is acetonitrile-0.2% aqueous formic acid solution with a flow rate of 0.2 ml/min; and a gradient elution is carried out as specified in the table below:
ESI ion source, positive ion detection in multiple reaction monitoring mode (MRM); the quantitatively analyzed ions (7aS,2′S)-2-oxo-clopidogrel: m/z 338.100→155.000, IS: m/z 341.100→158.000, a capillary voltage of 4.0 KV, a cone voltage of 25 V, a desolvation gas temperature of 400° C. and a source temperature of 150° C. The optimal collision energy is 20 eV.
Blank plasma was taken and TCEP was added to prepare plasma containing TCEP at different concentrations (10, 50, 100 mg/ml). Subsequently, standard series solution of (7aS,2′S)-2-oxo-clopidogrel was added separately to prepare quality control samples with two concentrations of (7aS,2′S)-2-oxo-clopidogrel (0.1 and 12.0 ng/ml), 3 samples for each concentration. They were placed at room temperature and on ice, respectively, and the plasma samples at different placing time points were taken to examine the stability by pre-treating the plasma samples according to the method of S2 of Example 1, followed by LC/MS/MS determination according to the method of S3.

Compound `COC(=O)[C@H](c1ccccc1Cl)N1CC[C@@H]2SC(=O)C=C2C1` [(7aS,2′S)-2-oxo-clopidogrel, methyl(S)-2-(2-chlorophenyl)-2-((S)-2-oxo-2,6,7,7a-tetrahydrothieno[3,2-c]pyridin-5 (4H)-yl)acetate] has a Measured concentration (No TCEP, theoretical 0.1 ng/mL, on ice, 0 min) of 0.0965 ng/mL, a Measured concentration (No TCEP, theoretical 0.1 ng/mL, on ice, 30 min) of 0.0842 ng/mL and a Measured concentration (No TCEP, theoretical 0.1 ng/mL, on ice, 60 min) of 0.0763 ng/mL. It also gave a Measured concentration (No TCEP, theoretical 0.1 ng/mL, on ice, 120 min) of 0.0622 ng/mL, a Measured concentration (No TCEP, theoretical 0.1 ng/mL, room temperature, 0 min) of 0.0965 ng/mL and a Measured concentration (No TCEP, theoretical 0.1 ng/mL, room temperature, 30 min) of 0.0782 ng/mL. For the same compound, the Measured concentration (No TCEP, theoretical 0.1 ng/mL, room temperature, 60 min) was 0.0633 ng/mL, the Measured concentration (No TCEP, theoretical 0.1 ng/mL, room temperature, 120 min) was 0.0529 ng/mL and the Measured concentration (No TCEP, theoretical 12.0 ng/mL, on ice, 0 min) was 12.3 ng/mL. It also gave a Measured concentration (No TCEP, theoretical 12.0 ng/mL, on ice, 30 min) of 10.3 ng/mL, a Measured concentration (No TCEP, theoretical 12.0 ng/mL, on ice, 60 min) of 9.65 ng/mL and a Measured concentration (No TCEP, theoretical 12.0 ng/mL, on ice, 120 min) of 7.23 ng/mL. For the same compound, the Measured concentration (No TCEP, theoretical 12.0 ng/mL, room temperature, 0 min) was 12.3 ng/mL, the Measured concentration (No TCEP, theoretical 12.0 ng/mL, room temperature, 30 min) was 9.45 ng/mL and the Measured concentration (No TCEP, theoretical 12.0 ng/mL, room temperature, 60 min) was 8.38 ng/mL. For the same compound, the Measured concentration (No TCEP, theoretical 12.0 ng/mL, room temperature, 120 min) was 6.57 ng/mL, the Measured concentration (TCEP 10 mg/ml, theoretical 0.1 ng/mL, on ice, 0 min) was 0.0965 ng/mL and the Measured concentration (TCEP 10 mg/ml, theoretical 0.1 ng/mL, on ice, 30 min) was 0.0942 ng/mL. It also gave a Measured concentration (TCEP 10 mg/ml, theoretical 0.1 ng/mL, on ice, 60 min) of 0.0863 ng/mL, a Measured concentration (TCEP 10 mg/ml, theoretical 0.1 ng/mL, on ice, 120 min) of 0.0782 ng/mL and a Measured concentration (TCEP 10 mg/ml, theoretical 0.1 ng/mL, room temperature, 0 min) of 0.0965 ng/mL. It also gave a Measured concentration (TCEP 10 mg/ml, theoretical 0.1 ng/mL, room temperature, 30 min) of 0.0952 ng/mL, a Measured concentration (TCEP 10 mg/ml, theoretical 0.1 ng/mL, room temperature, 60 min) of 0.0833 ng/mL and a Measured concentration (TCEP 10 mg/ml, theoretical 0.1 ng/mL, room temperature, 120 min) of 0.0729 ng/mL. For the same compound, the Measured concentration (TCEP 10 mg/ml, theoretical 12.0 ng/mL, on ice, 0 min) was 12.3 ng/mL, the Measured concentration (TCEP 10 mg/ml, theoretical 12.0 ng/mL, on ice, 30 min) was 11.9 ng/mL and the Measured concentration (TCEP 10 mg/ml, theoretical 12.0 ng/mL, on ice, 60 min) was 10.65 ng/mL. For the same compound, the Measured concentration (TCEP 10 mg/ml, theoretical 12.0 ng/mL, on ice, 120 min) was 9.92 ng/mL, the Measured concentration (TCEP 10 mg/ml, theoretical 12.0 ng/mL, room temperature, 0 min) was 12.3 ng/mL and the Measured concentration (TCEP 10 mg/ml, theoretical 12.0 ng/mL, room temperature, 30 min) was 11.7 ng/mL. For the same compound, the Measured concentration (TCEP 10 mg/ml, theoretical 12.0 ng/mL, room temperature, 60 min) was 10.4 ng/mL, the Measured concentration (TCEP 10 mg/ml, theoretical 12.0 ng/mL, room temperature, 120 min) was 9.45 ng/mL and the Measured concentration (TCEP 50 mg/ml, theoretical 0.1 ng/mL, on ice, 0 min) was 0.0965 ng/mL. The Measured concentration (TCEP 50 mg/ml, theoretical 0.1 ng/mL, on ice, 30 min) was 0.0956 ng/mL, the Measured concentration (TCEP 50 mg/ml, theoretical 0.1 ng/mL, on ice, 60 min) was 0.0932 ng/mL and the Measured concentration (TCEP 50 mg/ml, theoretical 0.1 ng/mL, on ice, 120 min) was 0.0911 ng/mL. For the same compound, the Measured concentration (TCEP 50 mg/ml, theoretical 0.1 ng/mL, room temperature, 0 min) was 0.0965 ng/mL, the Measured concentration (TCEP 50 mg/ml, theoretical 0.1 ng/mL, room temperature, 30 min) was 0.0935 ng/mL and the Measured concentration (TCEP 50 mg/ml, theoretical 0.1 ng/mL, room temperature, 60 min) was 0.0914 ng/mL. For the same compound, the Measured concentration (TCEP 50 mg/ml, theoretical 0.1 ng/mL, room temperature, 120 min) was 0.0895 ng/mL, the Measured concentration (TCEP 50 mg/ml, theoretical 12.0 ng/mL, on ice, 0 min) was 12.3 ng/mL and the Measured concentration (TCEP 50 mg/ml, theoretical 12.0 ng/mL, on ice, 30 min) was 12.2 ng/mL. It also gave a Measured concentration (TCEP 50 mg/ml, theoretical 12.0 ng/mL, on ice, 60 min) of 11.9 ng/mL, a Measured concentration (TCEP 50 mg/ml, theoretical 12.0 ng/mL, on ice, 120 min) of 11.4 ng/mL and a Measured concentration (TCEP 50 mg/ml, theoretical 12.0 ng/mL, room temperature, 0 min) of 12.3 ng/mL. It also gave a Measured concentration (TCEP 50 mg/ml, theoretical 12.0 ng/mL, room temperature, 30 min) of 12.1 ng/mL, a Measured concentration (TCEP 50 mg/ml, theoretical 12.0 ng/mL, room temperature, 60 min) of 11.9 ng/mL and a Measured concentration (TCEP 50 mg/ml, theoretical 12.0 ng/mL, room temperature, 120 min) of 10.6 ng/mL. For the same compound, the Measured concentration (TCEP 100 mg/ml, theoretical 0.1 ng/mL, on ice, 0 min) was 0.0965 ng/mL, the Measured concentration (TCEP 100 mg/ml, theoretical 0.1 ng/mL, on ice, 30 min) was 0.0958 ng/mL and the Measured concentration (TCEP 100 mg/ml, theoretical 0.1 ng/mL, on ice, 60 min) was 0.0942 ng/mL. For the same compound, the Measured concentration (TCEP 100 mg/ml, theoretical 0.1 ng/mL, on ice, 120 min) was 0.0951 ng/mL, the Measured concentration (TCEP 100 mg/ml, theoretical 0.1 ng/mL, room temperature, 0 min) was 0.0965 ng/mL and the Measured concentration (TCEP 100 mg/ml, theoretical 0.1 ng/mL, room temperature, 30 min) was 0.0955 ng/mL. For the same compound, the Measured concentration (TCEP 100 mg/ml, theoretical 0.1 ng/mL, room temperature, 60 min) was 0.0934 ng/mL, the Measured concentration (TCEP 100 mg/ml, theoretical 0.1 ng/mL, room temperature, 120 min) was 0.0915 ng/mL and the Measured concentration (TCEP 100 mg/ml, theoretical 12.0 ng/mL, on ice, 0 min) was 12.3 ng/mL. The Measured concentration (TCEP 100 mg/ml, theoretical 12.0 ng/mL, on ice, 30 min) was 12.4 ng/mL, the Measured concentration (TCEP 100 mg/ml, theoretical 12.0 ng/mL, on ice, 60 min) was 12.1 ng/mL and the Measured concentration (TCEP 100 mg/ml, theoretical 12.0 ng/mL, on ice, 120 min) was 11.8 ng/mL. The Measured concentration (TCEP 100 mg/ml, theoretical 12.0 ng/mL, room temperature, 0 min) was 12.3 ng/mL, the Measured concentration (TCEP 100 mg/ml, theoretical 12.0 ng/mL, room temperature, 30 min) was 12.2 ng/mL and the Measured concentration (TCEP 100 mg/ml, theoretical 12.0 ng/mL, room temperature, 60 min) was 11.9 ng/mL. For the same compound, the Measured concentration (TCEP 100 mg/ml, theoretical 12.0 ng/mL, room temperature, 120 min) was 11.6 ng/mL and the “Stability in plasma (in words)” value (TCEP added at a concentration of 50 mg/ml or more) was “good stability”.
